Measurements reported in PubChem BioAssay AID2060498 (Molecular Pharmacology Branch, DTP, NCI, 2025).
pIC50: −log10 of the molar value.

System: 171881-019-R-J1-PDC tumor spheroids, viability
Test: Anticancer human tumor 171881-019-R-J1-PDC patient-derived invasive breast carcinoma cell line growth inhibition [GQUAD]
Settings: spheroids with HUVEC and MSC; for pIC50: curve of first compound; for viability, T/C: stronger effect = lower value
Procedure, shortened: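 Viability of tumor cells grown as complex spheroids with endothelial and stromal cells, exposed to drug combinations. Top concentration at or near clinical Cmax (else 10 microM), diluted in half-log increments.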

[1] = second compound 0.0316 µM, first compound 0.0316 µM
[2] = second compound 0.0316 µM, first compound 0.316 µM
[3] = second compound 0.1 µM, first compound 0.0316 µM
[4] = second compound 0.1 µM, first compound 0.316 µM
[5] = second compound 0.316 µM, first compound 0.0316 µM
[6] = second compound 0.316 µM, first compound 0.316 µM
[7] = second compound 1 µM, first compound 0.0316 µM
[8] = second compound 1 µM, first compound 0.316 µM
[9] = second compound 3.16 µM, first compound 0.0316 µM
[10] = second compound 3.16 µM, first compound 0.316 µM
[11] = second compound 10 µM, first compound 0.0316 µM
[12] = second compound 10 µM, first compound 0.316 µM
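For viability, T/C in this document: 100% = DMSO vehicle control viability.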

**Q.** Which results are given for `CC[C@@]1(O)C(=O)OCc2c1cc1n(c2=O)Cc2cc3c(CN(C)C)c(O)ccc3nc2-1` + Cc1cnc(CNC(=O)c2c(=O)c3ccc(N4CCCN(C)CC4)nc3n3c2sc2ccccc23)cn1?
**A.** pIC50 (second compound 0.0316 µM): 7.08; pIC50 (second compound 0.1 µM): 6.85; pIC50 (second compound 0.316 µM): < 6.50; pIC50 (second compound 1 µM): < 6.50; pIC50 (second compound 3.16 µM): < 6.50; pIC50 (second compound 10 µM): < 6.50; viability, T/C (second compound 0.0316 µM, first compound 0.000999 µM): 96.2%; viability, T/C (second compound 0.0316 µM, first compound 0.00316 µM): 93.7%; viability, T/C (second compound 0.0316 µM, first compound 0.00999 µM): 89.8%; viability, T/C [1]: 72.3%; viability, T/C (second compound 0.0316 µM, first compound 0.0999 µM): 45.2%; viability, T/C [2]: 40.8%; viability, T/C (second compound 0.1 µM, first compound 0.000999 µM): 89.5%; viability, T/C (second compound 0.1 µM, first compound 0.00316 µM): 78.6%; viability, T/C (second compound 0.1 µM, first compound 0.00999 µM): 76.7%; viability, T/C [3]: 64.1%; viability, T/C (second compound 0.1 µM, first compound 0.0999 µM): 50%; viability, T/C [4]: 45.8%; viability, T/C (second compound 0.316 µM, first compound 0.000999 µM): 74%; viability, T/C (second compound 0.316 µM, first compound 0.00316 µM): 73.1%; viability, T/C (second compound 0.316 µM, first compound 0.00999 µM): 68.9%; viability, T/C [5]: 60.8%; viability, T/C (second compound 0.316 µM, first compound 0.0999 µM): 61.3%; viability, T/C [6]: 50.9%; viability, T/C (second compound 1 µM, first compound 0.000999 µM): 71.6%; viability, T/C (second compound 1 µM, first compound 0.00316 µM): 63.2%; viability, T/C (second compound 1 µM, first compound 0.00999 µM): 65.7%; viability, T/C [7]: 60.7%; viability, T/C (second compound 1 µM, first compound 0.0999 µM): 56.4%; viability, T/C [8]: 50.7%; viability, T/C (second compound 3.16 µM, first compound 0.000999 µM): 63.1%; viability, T/C (second compound 3.16 µM, first compound 0.00316 µM): 59.9%; viability, T/C (second compound 3.16 µM, first compound 0.00999 µM): 62.7%; viability, T/C [9]: 57%; viability, T/C (second compound 3.16 µM, first compound 0.0999 µM): 58.4%; viability, T/C [10]: 50.7%; viability, T/C (second compound 10 µM, first compound 0.000999 µM): 58.5%; viability, T/C (second compound 10 µM, first compound 0.00316 µM): 54.4%; viability, T/C (second compound 10 µM, first compound 0.00999 µM): 54.8%; viability, T/C [11]: 59.7%; viability, T/C (second compound 10 µM, first compound 0.0999 µM): 60.5%; viability, T/C [12]: 48%

**Q.** Which results are given for `COc1cc(C2c3cc4c(cc3C(OC3OC5COC(C)OC5C(O)C3O)C3COC(=O)C23)OCO4)cc(OC)c1O` (centres undefined) + Cc1cnc(CNC(=O)c2c(=O)c3ccc(N4CCCN(C)CC4)nc3n3c2sc2ccccc23)cn1?
**A.** pIC50 (second compound 0.0316 µM): 6.15; pIC50 (second compound 0.1 µM): 6.04; pIC50 (second compound 0.316 µM): 5.97; pIC50 (second compound 1 µM): 5.90; pIC50 (second compound 3.16 µM): 5.87; pIC50 (second compound 10 µM): 5.85; viability, T/C [1]: 94.5%; viability, T/C (second compound 0.0316 µM, first compound 0.1 µM): 79.3%; viability, T/C [2]: 63.4%; viability, T/C (second compound 0.0316 µM, first compound 1 µM): 42.5%; viability, T/C (second compound 0.0316 µM, first compound 3.16 µM): 31.4%; viability, T/C (second compound 0.0316 µM, first compound 10 µM): 17.4%; viability, T/C [3]: 83.7%; viability, T/C (second compound 0.1 µM, first compound 0.1 µM): 75.2%; viability, T/C [4]: 60.5%; viability, T/C (second compound 0.1 µM, first compound 1 µM): 52.3%; viability, T/C (second compound 0.1 µM, first compound 3.16 µM): 30.6%; viability, T/C (second compound 0.1 µM, first compound 10 µM): 16.7%; viability, T/C [5]: 69.9%; viability, T/C (second compound 0.316 µM, first compound 0.1 µM): 74.2%; viability, T/C [6]: 59.9%; viability, T/C (second compound 0.316 µM, first compound 1 µM): 49.5%; viability, T/C (second compound 0.316 µM, first compound 3.16 µM): 36.7%; viability, T/C (second compound 0.316 µM, first compound 10 µM): 18.1%; viability, T/C [7]: 65.4%; viability, T/C (second compound 1 µM, first compound 0.1 µM): 61%; viability, T/C [8]: 59.1%; viability, T/C (second compound 1 µM, first compound 1 µM): 53.3%; viability, T/C (second compound 1 µM, first compound 3.16 µM): 39.9%; viability, T/C (second compound 1 µM, first compound 10 µM): 19.3%; viability, T/C [9]: 60.3%; viability, T/C (second compound 3.16 µM, first compound 0.1 µM): 60.2%; viability, T/C [10]: 60%; viability, T/C (second compound 3.16 µM, first compound 1 µM): 53.3%; viability, T/C (second compound 3.16 µM, first compound 3.16 µM): 39.7%; viability, T/C (second compound 3.16 µM, first compound 10 µM): 20.9%; viability, T/C [11]: 58%; viability, T/C (second compound 10 µM, first compound 0.1 µM): 57.7%; viability, T/C [12]: 52.9%; viability, T/C (second compound 10 µM, first compound 1 µM): 55%; viability, T/C (second compound 10 µM, first compound 3.16 µM): 39%; viability, T/C (second compound 10 µM, first compound 10 µM): 21.1%
